According to patent publication US9364462B2, “Alpha-1-adrenergic receptor agonist therapy” (The Regents of the University of California, priority 2012, dated 2016):

Columns and labels:
kinase ERK = test: ERK activation in neonatal rat cardiac muscle cells in vitro; type: cell-based; conditions: FIG. 1
Excerpt: FIG. 1. A61603 protects neonatal cardiac muscle cells.

[1] = Right ventricle cardiomyopathy in pulmonary hypertension (bleomycin) model; type: in vivo, mouse
Excerpt: FIG. 11. A61603 reduces right ventricle (RV) cardiomyopathy in pulmonary hypertension. Mice had bleomycin instilled into the trachea and treatment with A61603 or vehicle. […] Mice with the alpha-1A knocked out did worse (α1ABKO).
Studies in mice looking at alpha-1 agonist therapy, using A61603, in a model of right ventricular failure from pulmonary hypertension. Failure of the right ventricle (RV) is a serious consequence of HF due to disease of the left ventricle (LV), and is also seen as an isolated problem, e.g. in lung disease (e.g. lung fibrosis), where treatment is extremely limited. Experiments were conducted with A61603 therapy in a mouse model of RV cardiomyopathy caused by pulmonary hypertension, which in turn was caused by lung fibrosis. Installation of bleomycin into the lung, caused fibrosis and secondary pulmonary hypertension and RV failure. Mice were treated continuously with A61603 or vehicle.

[2] = Blood pressure after acute intraperitoneal injection, indwelling arterial catheter; type: in vivo, mouse; conditions: 10 ng/kg injected acutely intraperitoneal
Method: The classic effect of alpha-1-agonists is to increase BP by stimulating smooth muscle cells to contract. It could be a disadvantage in heart failure (HF) therapy to increase BP excessively. On the other hand, all current recommended drugs in HF reduce BP, and a drug that increased BP slightly might have a strong therapeutic advantage. […] The foregoing experiments provided the rationale to test treatment with A61603 at 10 ng/kg/d in a mouse model of cardiomyopathy and HF.

[3] = Pressure overload cardiomyopathy (transverse aortic constriction, TAC) model; type: in vivo, mouse
Excerpt: FIG. 7. A61603 rescues pressure overload cardiomyopathy. Mice had echo 2 weeks after TAC, at which time they were randomized to treatment with A61603, at the same low dose, or vehicle. Fractional shortening, an index of cardiac function, was depressed by TAC, and improved with A61603, but not with vehicle.
FIG. 8. A61603 in pressure overload cardiomyopathy improves growth and protection, and reduces fibrosis.
Studies in mice looking at alpha-1 agonist therapy, using A61603, in a model of heart failure due to pressure overload (transverse aortic constriction model). A model of pressure overload was tested for 2 reasons: (1) test generality of A61603 effects in different types of cardiomyopathy; and (2) test treatment (rescue), rather than prevention, i.e. A61603 given at an interval of time after injury, when cardiomyopathy was already manifest. We used an adult mouse model of transverse aortic constriction (TAC), with the aorta surgically narrowed, so that the heart had to pump against an increased pressure (pressure overload). […] A61603 treatment rescued the cardiomyopathy, as measured by heart function (FIG. 7). […] Thus improvement in function caused by A61603 was again due to direct effects on cardiac muscle cells. The alpha-1A agonist A61603 at a low dose rescues (e.g. treats) cardiomyopathy due to pressure overload, an injury that simulates several types of cardiac disease, and the mechanism is improvement of cardiac myocytes.

[4] = tested on: neonatal rat cardiac muscle cells; test: Protein synthesis in neonatal rat cardiac muscle cells in vitro; type: cell-based; conditions: FIG. 2 (neonatal rat) and FIG. 20
Excerpt: FIG. 2. A61603 is adaptive in neonatal cardiac muscle cells.
FIG. 20. A61603 is adaptive in cardiac muscle cells.

neurons in brain slices = test: Adult mouse brain slices injured with H2O2 ex vivo; type: cell-based; conditions: H2O2, 2 h
Method: FIG. 13. Brain slice model to study alpha-1A agonist in vitro. Thin brain slices were injured with hydrogen peroxide (H2O2), which simulates most forms of ischemic and traumatic injury at the cell level, in the presence or absence of A61603. After 2 hr, dead neurons (PI) and living neurons (ATP) were measured.
FIG. 14. A61603 protects neurons in brain slices from oxidative injury in vitro. Slices were treated with H2O2 or vehicle (Veh) for 2 hr, in the presence of A61603, or absence (Veh).
Studies were conducted in mice looking at alpha-1 agonist therapy, using A61603, in a model of traumatic brain injury. Alpha-1-ARs are 10 times more abundant in neurons than in cardiac myocytes, and the alpha-1A subtype is the most abundant. […]
Alpha-1A-adrenergic receptors (α1A-ARs) have a protective trophic role in the heart. α1A-AR levels are high in the brain, and neuroprotection by norepinephrine is known. […] Ex vivo, we quantified ATP levels (marker for survival) in mouse brain slices injured by 10μ, M H2O2 and treated for 2 h with A61603 (a1A-AR specific agonist) or Vehicle. We quantified the number of dead neurons (propidium iodide (PI) positive) out of total (NeuN positive) in the same treated slices by immunohistochemistry (IHC). In vivo, we measured brain infarct size (BrdU-positive glial cells) after transient focal ischemia and reperfusion (IR) in α1ABKO and WT mice. […]

CS(=O)(=O)Nc1c(O)ccc2c1CCCC2C1=NCCN1 (stereo not shown) [A61603, N-[1-(4,5-dihydro-1H-imidazol-2-yl)-6-hydroxy-tetralin-5-yl]methanesulfonamide]
activation of the kinase ERK (kinase ERK): high efficacy and potency
RV failure (RV weight normalized to body weight) ([1]; bleomycin into trachea, A61603 vs vehicle): reduced or prevented RV failure
function of RV muscle taken from treated mice, studied in vitro ([1]; bleomycin model): better function
BP [2]: does not increase BP
degree of overload (the gradient) ([3]; A61603 vs vehicle group after TAC): the same in both groups
adaptive proteins (myosin or MF20 and beta-myosin or bMHC) ([3]; TAC): more adaptive proteins
collagen fibrosis (Col I) ([3]; TAC): less collagen fibrosis
heart weight normalized to body weight (HW/BW) ([3]; TAC): less abnormal enlargement
protection (ERK) ([3]; TAC): higher protection
fractional shortening ([3]; treatment started 2 weeks after TAC, low dose, vs vehicle): improved
activation of protein synthesis [4]: high efficacy and potency
ATP levels after H2O2 (neurons in brain slices; N=2, vehicle 5.5±0.5): 8±1 nmol/mg protein
number of dead neurons caused by H2O2 (PI positive out of total NeuN positive) (neurons in brain slices; N=2, vehicle 86±5.3): 46±0.3
